# Test results published in US20070254950A1, “Oculoselective Drugs and Prodrugs” (Othera Pharmaceuticals, Inc., priority 2004, published 2007).
# pIC50: −log10 of the molar value.
# Legend:
# [1] = test system: albino rabbits; assay: Evaluation of ocular irritation; format: in vivo, rabbit
# Description: Thirty albino rabbits were randomly divided into five groups. Each rabbit was dosed in the conjunctival sac of the right eye topically every ten minutes for one hour (six doses) with 50 μL of 0.0%, 0.3%, 0.5%, 1.0% and 2% of test compound, in 0.9% saline solution. The treated eye of each rabbit was examined for indications of ocular irritation, including swelling, discharge, redness, iritis of conjunctiva, eyelid, iris as well as opacity and involvement of the cornea. Individual scores were added to determine the degree of slight, moderate or severe irritation. Ocular observations were made before the treatment, one hour after the first and sixth instillation and then 1, 2, 3, 4 and 7 days, using a slit lamp.
# [2] = test system: albino rabbits; assay: Corneal anesthesia measurements (Cochet's esthesiometer); format: in vivo, rabbit
# Description: The effect of a 50 μl single instillation of 0.3%, 0.5%, 1.0% and 2.0% solution of compound 7 on corneal anesthesia, after a single instillation in the conjunctival sac of the right eyes of albino rabbits (N=5) was measured using a Cochet's esthesiometer (nylon thread: 0.12 mm diameter, 10 mm long). Corneal anesthesia was evaluated by the number of corneal mechanical stimuli necessary to induce a blinking reflex. The effect of drug solutions was compared with sterile 0.9% NaCl treated animals (control group) and 0.4% oxybuprocaine (Novesine®).
# [3] = Accelerated stability test of 0.25% solutions in acetate buffer, HPLC; format: physicochemical; conditions: for projected shelf-life of eye drop formulation: at room temperature, projected from the accelerated test
# Description: An accelerated stability test was conducted on 0.25% solutions of compounds 6, 7, and 8 (Example 2) at 40° C. for 1, 2, 3, 4, 8 and 12 weeks and monitored for the disappearance of the prodrugs and appearance of the parent compound by HPLC analysis. The parent compound (referred to hereinafter as compound 4) has the formula: [drawing 47]
# The respective compounds were dissolved in an acetate buffer, pH 3.5 (0.018% sodium acetate, 0.135% acetic acid, 0.9% sodium chloride in water for injection) to obtain 0.25% solution. The stability of the compounds was determined at 40° C. for 1, 2, 3, 4, 8, and 12 weeks. The concentration of the parent compound as well as the concentrations of the prodrug compounds 6, 7, and 8 at each time point by HPLC method.
# [4] = Ocular bioavailability (aqueous humor levels by HPLC); format: in vivo; conditions: single instillation into conjunctival sac
# Description: Three rabbits were used per time point. The […] test substance was administered in a single instillation using a micropipette into the conjunctival sac of the right and the left eyes. The rabbits were anesthetized with an intramuscular injection of Imalgène® 1000 (ketamine 32 mg/kg), and Rompun® (xylasine 7.5 mg/kg). They were then desanguinated by cardiac puncture and thereafter euthanized by an overdose of pentobarbital. Immediately after death, the eyes were micro-dissected to obtain: cornea (C), aqueous humor (AH), and iris-ciliary body (ICB). All samples were stored at −80° C. Only aqueous humor (AH) samples were analyzed by HPLC.
# [5] = molecular target: Human recombinant adrenergic beta-1 (Homo sapiens, UniProt P08588); assay: Human recombinant adrenergic beta-1 radioligand binding assay ([125I]Cyanopindolol); conditions: [125I]Cyanopindolol radioligand; read-out: Binding efficacy IC50
# Human recombinant adrenergic beta-1, sequence (P08588 whole entry): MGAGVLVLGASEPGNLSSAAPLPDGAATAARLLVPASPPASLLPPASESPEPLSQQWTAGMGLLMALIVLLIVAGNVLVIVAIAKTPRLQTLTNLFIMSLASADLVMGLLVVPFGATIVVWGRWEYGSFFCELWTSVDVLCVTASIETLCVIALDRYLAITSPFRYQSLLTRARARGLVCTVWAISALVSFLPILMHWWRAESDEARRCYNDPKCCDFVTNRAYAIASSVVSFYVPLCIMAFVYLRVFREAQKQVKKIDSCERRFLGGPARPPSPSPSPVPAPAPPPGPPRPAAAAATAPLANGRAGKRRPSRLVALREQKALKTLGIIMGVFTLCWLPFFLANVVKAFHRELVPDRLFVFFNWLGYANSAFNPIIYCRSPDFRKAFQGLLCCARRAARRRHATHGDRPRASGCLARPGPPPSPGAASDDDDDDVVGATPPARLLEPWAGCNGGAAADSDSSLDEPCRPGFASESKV
# Description: Human recombinant adrenergic beta-1 Assays (Radioligand Binding) were conducted according to the procedure described by Feve, B., et al., Proc. Natl. Acad. Sci. USA, 91, 5677, 1994 using [[^125I]]Cyanopindolol as a radioligand. The results are expressed in IC50 (nM). (Table B)
SMILES,projected shelf-life of eye drop formulation [3],level of the prodrug itself in aqueous humor [4],pIC50 [5],also measured
"Cc1cc(O)c(O)cc1C(=O)OCC(CNC(C)(C)CNC(=O)C1CCOC1)OC(=O)C(C)(C)C (stereo not shown) [Compound 6, reference compound]",2.6 months,below the detection limit,–,ocular irritation ([1]; at 1% concentration): moderate irritation; corneal sensitivity loss ([2]; at 1%): complete corneal sensitivity loss
"Cc1cc(O)c(O)cc1C(=O)OC[C@@H](O)CNC(C)(C)COC(=O)C1CCOC1 (stereo partly drawn) [Compound 19, (S)-Tetrahydro-furan-3-carboxylic acid 2-[3-(4,5-dihydroxy-2-methyl-benzoyloxy)-2-hydroxy-propylamino]-2-methyl-propyl ester]",–,–,8.19,–
"Cc1cc(O)c(O)cc1C(=O)OC[C@@H](O)CNC(C)(C)COC(=O)C(C)(C)C [Compound 17, (S)-4,5-bis-dihydroxy-2-methyl-benzoic acid 3-[2-(2,2-dimethyl-propionyloxy)-1,1-dimethyl-ethylamino]-2-hydroxy-propyl ester]",–,–,7.92,–
"Cc1cc(O)c(O)cc1C(=O)OC[C@@H](O)CNC(C)(C)CO [Compound 15, (S)-4,5-dihydroxy-2-methyl-benzoic acid 2-hydroxy-3-(2-hydroxy-1,1-dimethyl-ethylamino)-propyl ester]",–,–,7.41,–
"Cc1cc(O)c(O)cc1C(=O)OCC(CNC(C)(C)CNC(=O)C1CCOC1)OC(=O)C1(C)CC1 (stereo not shown) [Compound 7, 4,5-Dihydroxy-2-methyl-benzoic acid 3-{1,1-dimethyl-2-[(tetrahydro-furan-3-carbonyl)-amino]-ethylamino}-2-(1-methyl-cyclopropanecarbonyloxy)-propyl ester]",at least 18 months,also present in aqueous humor,–,"ocular irritation ([1]; topical, six times every ten minutes at 0.3%, 0.5%, 1.0% and 2.0%, right conjunctival sac, vs 0.9% saline control): no ocular irritation; corneal sensitivity (local anesthetic activity) ([2]; single 50 μl instillation of 0.3%, 0.5%, 1.0% and 2.0% solution, compared to 0.4% oxybuprocaine): no corneal sensitivity (local anesthetic activity); relative stability (percent degradation time course, FIG. 1) ([3]; 0.25% solution, 40° C., pH 3.5, up to 12 weeks): most stable"
"Cc1cc(O)c(O)cc1C(=O)OCC(CNC(C)(C)CNC(=O)C1CCOC1)OC(=O)C1CC1(C)C (stereo not shown) [Compound 8, 4,5-dihydroxy-2-methyl-benzoic acid 2-(2,2-dimethyl-cyclopropanecarbonyloxy)-3-{1,1-dimethyl-2-[(tetrahydro-furan-3-carbonyl)-amino]-ethylamino}-propyl ester]",7.9 months,–,–,–
